Here are results for one compound from patent US7943584B2, “Medicinal composition containing diabetes remedy” (Sankyo Company, Limited, priority 2004, dated 2011).

The test addresses T1, human pancreatic α-amylase (HPA) (Homo sapiens, UniProt P04746).
T1 construct: purchased International Reagents Co., Ltd. Calibzyme AMY
T1 sequence (P04746 16-511): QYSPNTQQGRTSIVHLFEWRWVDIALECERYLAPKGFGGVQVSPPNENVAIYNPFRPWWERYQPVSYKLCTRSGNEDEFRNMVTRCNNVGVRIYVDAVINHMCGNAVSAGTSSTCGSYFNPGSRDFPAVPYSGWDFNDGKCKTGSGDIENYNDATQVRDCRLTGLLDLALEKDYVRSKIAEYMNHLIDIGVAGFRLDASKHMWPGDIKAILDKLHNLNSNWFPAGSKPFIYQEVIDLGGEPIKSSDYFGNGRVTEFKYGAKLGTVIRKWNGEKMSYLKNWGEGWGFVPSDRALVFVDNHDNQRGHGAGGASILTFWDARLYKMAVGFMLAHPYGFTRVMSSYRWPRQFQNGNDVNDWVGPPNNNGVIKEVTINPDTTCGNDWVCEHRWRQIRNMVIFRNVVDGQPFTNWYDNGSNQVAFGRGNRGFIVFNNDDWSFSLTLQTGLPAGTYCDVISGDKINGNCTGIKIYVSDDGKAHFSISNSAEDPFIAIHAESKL
Description: α-Amylase inhibitory action (Blue Starch, Neo Amylase Test). In kind it is biochemical. Particulars: final concentration required for 50% inhibition of HPA solution, 37° C.

Molecules are shown by their SMILES.

Description: α-Amylase Inhibitory Action
(1) Preparation of Human α-Amylase Solution
Calibzyme AMY (International Reagents Co., Ltd.) was used for the human pancreatic α-amylase (HPA). Distilled water was added to the commercially available HPA and dissolved to a concentration of 200 IU/l to prepare the α-amylase solution. The activity of the α-amylase was measured using a commercially available α-amylase assay reagent (Neo Amylase Test Daiichi, Daiichi Pure Chemicals Co., Ltd.).
(2) Preparation of Inhibitory Solutions
Each test compound was prepared with distilled water to a final concentration of 0.1 to 30 μg/ml.
(3) Measurement of Human α-Amylase Inhibitory Activity of Inhibitory Solutions
After incubating for 10 minutes at 37° C., a Blue Starch tablet (Neo Amylase Test Daiichi, Daiichi Pure Chemicals Co., Ltd.) was added followed by stirring for about 10 seconds with a mixer, and the mixture was then heated for 30 minutes at 37° C. […] In addition, a mixture to which distilled water was added instead of α-amylase solution was used as a blank.

With `COC[C@H]1O[C@@H](O[C@H]2[C@H](O)[C@@H](O)C(O[C@H]3[C@H](O)CN[C@@H]3CO)O[C@@H]2CO)[C@H](O)[C@@H](O)[C@@H]1O` (stereo partly drawn) [Reference Example 8, (2R,3R,4R)-4-Hydroxy-2-hydroxymethylpyrrolidin-3-yl 4-O-(6-methoxy-6-deoxy-β-D-glucopyranosyl)-D-glucopyranoside], the IC50 (in general, the point on the concentration scale where inhibition reaches its midpoint) was 848 nM.
